Data from patent US11807606B2, “Sulfonamide derivatives for protein degradation” (DANA-FARBER CANCER INSTITUTE, INC., priority 2018, dated 2023).

The molecules below were run against DCAF15 and RRM2 domain in RBM39 (Homo sapiens (Human), UniProt Q14498+Q66K64) (assay: TR-FRET biochemical assay, DCAF15 activity (recruitment of RBM39 RRM2 domain to DCAF15)). Conditions: TR-FRET 520/490 nm ratio; biotinylated DCAF15 200 nM, Bodipy-FL RBM39 RRM2 200 nM, Tb-streptavidin 2 nM.
DCAF15 and RRM2 domain in RBM39, sequence (Q66K64 whole entry, the tested form may be a part): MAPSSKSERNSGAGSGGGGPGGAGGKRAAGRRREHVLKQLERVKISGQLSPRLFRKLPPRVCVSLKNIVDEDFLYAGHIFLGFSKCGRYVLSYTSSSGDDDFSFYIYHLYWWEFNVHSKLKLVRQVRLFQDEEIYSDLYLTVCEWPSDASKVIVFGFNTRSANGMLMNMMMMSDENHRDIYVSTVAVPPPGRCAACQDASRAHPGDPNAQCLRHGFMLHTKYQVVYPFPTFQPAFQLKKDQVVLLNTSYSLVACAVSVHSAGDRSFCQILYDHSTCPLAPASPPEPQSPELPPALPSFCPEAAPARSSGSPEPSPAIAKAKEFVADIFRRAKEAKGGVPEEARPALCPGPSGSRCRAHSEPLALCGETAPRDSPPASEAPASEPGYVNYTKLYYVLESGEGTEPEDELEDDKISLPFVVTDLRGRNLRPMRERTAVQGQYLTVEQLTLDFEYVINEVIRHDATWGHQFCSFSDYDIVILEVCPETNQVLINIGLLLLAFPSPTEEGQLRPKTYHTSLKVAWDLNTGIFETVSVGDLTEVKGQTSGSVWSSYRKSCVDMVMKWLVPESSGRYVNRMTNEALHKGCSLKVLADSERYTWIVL
DCAF15 and RRM2 domain in RBM39, sequence (Q14498 250-328): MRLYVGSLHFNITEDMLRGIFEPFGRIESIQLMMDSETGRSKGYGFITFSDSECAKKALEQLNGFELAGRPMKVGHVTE
DCAF15 and RRM2 domain in RBM39, sequence (Q16531 whole entry partner, the tested form may be a part): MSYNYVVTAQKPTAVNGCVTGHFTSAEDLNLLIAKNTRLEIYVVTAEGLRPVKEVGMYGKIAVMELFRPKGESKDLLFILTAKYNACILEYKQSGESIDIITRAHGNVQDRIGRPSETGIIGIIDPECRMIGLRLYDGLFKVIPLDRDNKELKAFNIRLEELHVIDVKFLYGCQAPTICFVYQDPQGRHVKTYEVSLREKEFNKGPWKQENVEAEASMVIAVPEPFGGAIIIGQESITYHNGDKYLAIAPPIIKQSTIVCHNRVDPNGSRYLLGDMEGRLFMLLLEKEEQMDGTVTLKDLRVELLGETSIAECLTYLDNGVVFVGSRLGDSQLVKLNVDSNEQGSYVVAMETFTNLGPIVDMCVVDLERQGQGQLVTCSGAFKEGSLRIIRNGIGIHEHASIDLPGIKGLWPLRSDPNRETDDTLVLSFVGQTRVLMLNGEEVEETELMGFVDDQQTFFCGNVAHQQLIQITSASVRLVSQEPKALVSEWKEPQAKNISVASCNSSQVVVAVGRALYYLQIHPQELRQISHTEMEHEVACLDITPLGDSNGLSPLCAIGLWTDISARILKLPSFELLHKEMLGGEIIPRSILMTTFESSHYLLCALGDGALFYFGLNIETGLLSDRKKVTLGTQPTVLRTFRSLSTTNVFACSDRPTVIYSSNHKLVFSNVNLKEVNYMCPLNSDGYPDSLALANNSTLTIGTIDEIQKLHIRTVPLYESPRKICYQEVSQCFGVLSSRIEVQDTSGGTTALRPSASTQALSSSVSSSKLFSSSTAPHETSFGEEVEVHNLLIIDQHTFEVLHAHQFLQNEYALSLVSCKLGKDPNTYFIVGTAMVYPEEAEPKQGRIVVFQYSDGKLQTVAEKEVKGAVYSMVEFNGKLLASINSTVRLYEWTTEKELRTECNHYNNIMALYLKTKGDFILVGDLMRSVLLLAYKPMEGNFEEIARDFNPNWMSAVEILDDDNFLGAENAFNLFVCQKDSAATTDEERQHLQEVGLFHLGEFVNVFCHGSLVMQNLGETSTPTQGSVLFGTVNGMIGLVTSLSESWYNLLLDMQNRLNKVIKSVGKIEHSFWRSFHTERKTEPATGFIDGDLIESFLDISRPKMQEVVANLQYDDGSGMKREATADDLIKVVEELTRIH
Type: binding
Method: Increasing concentrations of compounds were added to pre-mixed biotinylated DCAF15 at 200 nM, Bodipy-FL-labelled RRM2 domain in RBM39 at 200 nM, and terbium (Tb)-coupled streptavidin at 2 nM (Invitrogen) in 384-well microplates in a buffer containing 50 mM Tris pH 7.5, 100 mM NaCl, 0.1% pluronic acid and 2% DMSO. Before TR-FRET measurements were conducted, the reactions were incubated for 15 min at room temperature. After excitation of terbium (Tb) fluorescence at 337 nm, emission at 490 nm (Tb) and 520 nm (Bodipy-FL) were recorded with a 70 μs delay to reduce background fluorescence and the reaction was followed over 1 h by recording 60 technical replicates of each data point using a PHERAstar FS microplate reader (BMG Labtech). The TR-FRET signal of each data point was extracted by calculating the 520/490 nm ratio. Data were analyzed with GraphPad Prism 7.
`Cc1cccc(S(=O)(=O)Nc2ccc(C)c3c(C#N)c[nH]c23)c1` gave an EC50 of 1 to 10 µM. Molecule `Cc1ccc(NS(=O)(=O)c2cccc(C(F)(F)F)c2)c2[nH]cc(C#N)c12` has an EC50 of 1 to 10 µM. Work on `Cc1ccc(NS(=O)(=O)c2cccc([N+](=O)[O-])c2)c2[nH]cc(C#N)c12` yielded an EC50 of 1 to 10 µM. Molecule `Cc1ccc(NS(=O)(=O)c2cccc(N)c2)c2[nH]cc(C#N)c12` has an EC50 of 1 to 10 µM. With `CNC(=O)c1cccc(S(=O)(=O)Nc2ccc(C)c3c(C#N)c[nH]c23)c1` the EC50 was 1 to 10 µM. `COC(=O)c1cccc(S(=O)(=O)Nc2ccc(C)c3c(C#N)c[nH]c23)c1` was tested, and the EC50 was 1 to 10 µM. `Cc1ccc(NS(=O)(=O)c2ccc(C#N)cc2)c2[nH]cc(C#N)c12` showed an EC50 of 1 to 10 µM. `Cc1ccc(NS(=O)(=O)c2ccccc2[N+](=O)[O-])c2[nH]cc(C#N)c12` was tested, and the EC50 was > 10 µM. In the case of `Cc1ccc(NS(=O)(=O)c2ccc(F)cc2F)c2[nH]cc(C#N)c12`, the EC50 is reported as 1 to 10 µM. Molecule `COC(=O)c1ccc(S(=O)(=O)Nc2ccc(C)c3c(C#N)c[nH]c23)cc1` has an EC50 of 1 to 10 µM. `Cc1ccc(NS(=O)(=O)c2ccc([N+](=O)[O-])cc2)c2[nH]cc(C#N)c12` was tested, and the EC50 was 1 to 10 µM. With `Cc1ccc(NS(=O)(=O)c2cccc(C#N)c2)c2[nH]cc(C=O)c12` the EC50 was 1 to 10 µM. `Cc1ccc(NS(=O)(=O)c2cccc(C#N)c2)c2[nH]ccc12` was tested, and the EC50 was > 10 µM. In the case of `CNC(=O)c1c[nH]c2c(NS(=O)(=O)c3cccc(C#N)c3)ccc(C)c12`, the EC50 is reported as > 10 µM. For `N#Cc1cccc(S(=O)(=O)Nc2ccc(-c3ccccc3)c3c(C#N)c[nH]c23)c1`, the EC50 was > 10 µM. `O=S(=O)(Nc1ncnc2[nH]ccc12)c1ccccc1` was tested, and the EC50 was > 10 µM. `Cc1ccc(NS(=O)(=O)c2ccccc2OC(F)(F)F)c2[nH]cc(C#N)c12` was tested, and the EC50 was > 10 µM. In the case of `Cc1ccccc1S(=O)(=O)Nc1ccc(C)c2c(C#N)c[nH]c12`, the EC50 is reported as > 10 µM. For `Cc1ccc(NS(=O)(=O)c2ccccc2C(F)(F)F)c2[nH]cc(C#N)c12`, the EC50 was > 10 µM. With `Cc1ccc(NS(=O)(=O)c2ccccc2Br)c2[nH]cc(C#N)c12` the EC50 was > 10 µM. Molecule `Cc1ccc(NS(=O)(=O)c2ccccc2)c2[nH]cc(C#N)c12` has an EC50 of 1 to 10 µM. `Cc1ccc(NS(C)(=O)=O)c2[nH]cc(C#N)c12` was tested, and the EC50 was > 10 µM. `CC(=O)Nc1ccc(C)c2c(C#N)c[nH]c12` was tested, and the EC50 was > 10 µM. With `N#Cc1cccc(S(=O)(=O)Nc2cc(Cl)cc3cc[nH]c23)c1` the EC50 was > 10 µM. With `N#Cc1cccc(S(=O)(=O)Nc2cc(F)cc3c2NC(=O)C3)c1` the EC50 was > 10 µM. For `Cc1ccc(NC(=O)c2cccc(C#N)c2)c2[nH]cc(C#N)c12`, the EC50 was > 10 µM. Molecule `Cc1ccc(NS(=O)(=O)c2cccc(C#N)c2)c2[nH]cc(Cl)c12` has an EC50 of 1 to 10 µM. For `Cc1ccc(NS(=O)(=O)c2cccc(C#N)c2)c2[nH]cc(Br)c12`, the EC50 was 1 to 10 µM. `N#Cc1cccc(S(=O)(=O)Nc2cc(Cl)cc3c(Br)c[nH]c23)c1` was tested, and the EC50 was > 10 µM. With `N#Cc1cccc(S(=O)(=O)Nc2ccc3c(C#N)c[nH]c3c2)c1` the EC50 was > 10 µM. `N#Cc1cccc(S(=O)(=O)Nc2cccc3c(C#N)c[nH]c23)c1` was tested, and the EC50 was > 10 µM. With `CCOC(=O)c1cc2cc(NS(=O)(=O)c3cccc(C#N)c3)ccc2[nH]1` the EC50 was > 10 µM. `N#Cc1cccc(S(=O)(=O)Nc2ncnc3[nH]ccc23)c1` was tested, and the EC50 was > 10 µM. For `N#Cc1cccc(S(=O)(=O)Nc2ncnc3[nH]cc(Cl)c23)c1`, the EC50 was > 10 µM. In the case of `N#Cc1cccc(S(=O)(=O)Nc2cccn3ncnc23)c1`, the EC50 is reported as > 10 µM. For `N#Cc1cccc(S(=O)(=O)Nc2cc(-c3ccccc3)cc3c(C#N)c[nH]c23)c1`, the EC50 was > 10 µM. In the case of `N#Cc1cccc(S(=O)(=O)Nc2cc(-c3ccccc3)cc3cc[nH]c23)c1`, the EC50 is reported as > 10 µM. `COCCNc1ccc(S(=O)(=O)Nc2ccc(C)c3c(C#N)c[nH]c23)cc1C#N` was tested, and the EC50 was 1 to 10 µM. For `N#Cc1cccc(S(=O)(=O)Nc2ccc(-c3ccccc3)c3cc[nH]c23)c1`, the EC50 was > 10 µM. In the case of `N#Cc1cccc(S(=O)(=O)Nc2cccc3c2CNC3=O)c1`, the EC50 is reported as > 10 µM. `CCOC(=O)c1cc2c(C)ccc(NS(=O)(=O)c3cccc(C#N)c3)c2[nH]1` was tested, and the EC50 was > 10 µM. With `N#Cc1cccc(S(=O)(=O)Nc2cccc(C(N)=O)c2N)c1` the EC50 was > 10 µM. In the case of `N#Cc1cccc(S(=O)(=O)Nc2ccc3[nH]cc(C#N)c3c2)c1`, the EC50 is reported as > 10 µM. For `N#Cc1cccc(S(=O)(=O)Nc2cccc3c(Cl)n[nH]c23)c1`, the EC50 was > 10 µM.
